Data published in patent US7605270B2, “Polymorphic forms of (S).-tetrahydrofuran-3-yl-3-(3-(3-methoxy-4-(oxazol-5-yl) phenyl) ureido) benzylcarbamate” (Vertex Pharmaceuticals Incorporated, priority 2005, dated 2009).
Structures can show the parent of a compound that is named as a salt.

How the values were obtained:
[1] = biological target: IMPDH human type II (Homo sapiens, UniProt P12268); details: general statement; disclosed in the Compound 1 patents; cited from earlier work
[2] = Maturation study of Form A1: slurry in solvent, excess solid analysed by XRPD; format: physicochemical; details: about 10 mg slurried in 500 μl solvent, shaken at 25-30° C. for 24 hrs
Procedure: X-ray powder diffraction patterns for the samples were acquired on a Bruker AXS/Siemens D5000 diffractometer using CuKα radiation (40 kV, 40 mA), ?-? goniometer, automatic divergence and receiving slits, a graphite secondary monochromator and a scintillation counter. The data were collected over an angular range of 2° to 42° 2? in continuous scan mode using a step size of 0.02° 2? and a step time of 1 second. Samples run under ambient conditions were prepared as flat plate specimens using powder as received without grinding. Approximately 25-50 mg of the sample was gently packed into 12 mm diameter, 0.5 mm deep cavities cut into polished, zero-background (510) silicon wafers (The Gem Dugout, 1652 Princeton Drive, Pennsylvania State College, PA 16803, USA). All specimens were run both stationary and rotated in their own plane during analysis. A further specimen was run using silicon powder as an internal standard to correct for any peak displacement. Samples run under non-ambient conditions were packed into a stainless steel cavity sample holder equipped with a Pt 100 thermocouple for temperature monitoring. Low temperature data were recorded using an Anton Paar TTK450 variable temperature camera attached to the Bruker AXS/Siemens D5000 diffractometer. […] The excess solid was removed by filtration and analysed by XRPD.

[3] = Hygroscopicity: water/weight uptake at 90% relative humidity; format: physicochemical; details: for water uptake (weight uptake): at 90% relative humidity (RH) at 25° C.; for hygroscopicity (in words): judged from uptake at 90% relative humidity

Row | SMILES | water uptake (weight uptake) [3] | hygroscopicity (in words) [3] | other results
1 | COc1cc(NC(=O)Nc2cccc(CNC(=O)O[C@H]3CCOC3)c2)ccc1-c1cnco1 [Compound 1, (S)-tetrahydrofuran-3-yl 3-(3-(3-methoxy-4-(oxazol-5-yl)phenyl)ureido)benzylcarbamate] | – | – | IMPDH inhibition (in words) [1]: potent IMPDH inhibitor
2 | COc1cc(NC(=O)Nc2cccc(CNC(=O)O[C@H]3CCOC3)c2)ccc1-c1cnco1 [Form A1, (S)-tetrahydrofuran-3-yl 3-(3-(3-methoxy-4-(oxazol-5-yl)phenyl)ureido)benzylcarbamate] | less than 0.5% | non-hygroscopic | XRPD patterns observed after maturation, all 31 solvents [2]: consistent with the pattern of Form A1
3 | COc1cc(NC(=O)Nc2cccc(CNC(=O)O[C@H]3CCOC3)c2)ccc1-c1cnco1 [Form C3, (S)-tetrahydrofuran-3-yl 3-(3-(3-methoxy-4-(oxazol-5-yl)phenyl)ureido)benzylcarbamate] | 3% | moderately hygroscopic | –
4 | COc1cc(NC(=O)Nc2cccc(CNC(=O)O[C@H]3CCOC3)c2)ccc1-c1cnco1 [Form E5 HCl salt, (S)-tetrahydrofuran-3-yl 3-(3-(3-methoxy-4-(oxazol-5-yl)phenyl)ureido)benzylcarbamate, HCl salt] | – | – | uptake ([3]; at 90% relative humidity): 22 % w/w; hygroscopicity (in words) ([3]; HCl salt): highly hygroscopic
